The target in one assay is T1, AT1 Q257A receptor (Rattus norvegicus, UniProt P25095, Q257A).
T1 construct: expressed in transfected cells; host or cells: COS7
T1 sequence (P25095 1-359 Q257A): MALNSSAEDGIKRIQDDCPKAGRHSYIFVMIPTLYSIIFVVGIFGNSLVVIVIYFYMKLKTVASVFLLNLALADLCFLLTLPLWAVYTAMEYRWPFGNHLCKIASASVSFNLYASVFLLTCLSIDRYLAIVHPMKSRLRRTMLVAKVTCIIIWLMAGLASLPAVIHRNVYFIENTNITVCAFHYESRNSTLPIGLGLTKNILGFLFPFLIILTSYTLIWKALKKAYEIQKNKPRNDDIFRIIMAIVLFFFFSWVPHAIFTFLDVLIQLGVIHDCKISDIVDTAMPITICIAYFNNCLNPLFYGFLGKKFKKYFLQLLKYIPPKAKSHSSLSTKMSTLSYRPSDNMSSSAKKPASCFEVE
Description: IP production assay in COS7 cells expressing AT1-Q257A receptor. Type of assay: cell-based. The settings on record: 1 µM ligands or 0.1 µM Ang II, 30 min, n = 5, vs. (-). As for the experimental part:
(§1) The synthetic rat AT1 receptor gene, which was cloned in the shuttle expression vector pMT-2, was used for expression and mutagenesis, as described previously. […] In the experiments, cells were grown without a cell-growth supplement. To express the AT1 receptor protein, 10 µg of purified plasmid DNA per 10^7 cells was used in the transfection. Wild-type and mutated AT1 receptors were transiently transfected into cells using Lipofectamine 2000 liposomal reagent (Roche Applied Science, Penzberg, Germany). Cells were plated and grown and were 70–90% confluent at the time of transfection. We incubated plasmid DNA (10 µg)–lipid (10 µL) complexes for 5 min at room temperature and added and incubated the complexes with cells for 24 h. We then analyzed the parameters in transfected cells. […] Transfected cells that had been cultured for 48–72 h were harvested. Cell membranes were prepared using the nitrogen Parr bomb disruption or freeze–thaw methods.
Ligand (such as agonist or antagonist)-induced IP production through the AT1 receptor in transfected COS7 cells transiently expressing the AT1 receptor was measured to evaluate cell signaling as a second messenger for controlling blood pressure, since the increases in the intracellular Ca^2+ concentration were the result of IP accumulation, which indicated vasoconstriction. As a surrogate model with higher levels of AT1 receptor expression, COS7 cells are suitable for IP measurement because it is easy to detect differences in IP production. Cells were labeled for 24 h with [^3H]-myoinositol at 37 °C in DMEM containing 10% FBS. Next, the cells were washed with buffer 3 times and incubated with a medium containing 10 mM LiCl for 20 min; 0.1 µM Ang II or 1 µM ligands were added and incubation was continued for another 30 min at 37 °C. After incubation, the medium was removed, and total soluble IP was extracted from the cells using the perchloric acid extraction method, as described previously. Cells were plated at a field density of 5 × 10^3 cells/cm^2 in 60 mm dishes and cultured in a fresh growth medium at 37 °C in a DMEM 5% CO2 incubator. […] The culture medium was changed 48 h after transfection and 1.5 mL of 1 μCi/mL of [^3H]-myoinositol was added to each 60-mm dish at 37 °C in DMEM containing 10% FBS. After labeling, the cells were washed with buffer 3 times and incubated with a medium containing 10 mM LiCl for 20 min. The indicated concentration of ligands was added and incubation was continued for an additional 30 min at 37 °C. After incubation, the medium was removed, and total soluble IP was extracted from the cells using the perchloric acid extraction method. Total IP production was expressed as the sum of radioactivity, as described previously.

For a further assay, the target named is T2, AT1 L112A receptor (Rattus norvegicus, UniProt P25095, L112A).
T2 construct: expressed in transfected cells; host or cells: COS7
T2 sequence (P25095 1-359 L112A): T1 sequence (P25095 1-359 Q257A) with L112A, A257Q
Description: Immunoblotting of ERK 1/2 activation in COS7 cells overexpressing AT1-L112A receptor. The assay is classed as cell-based. The settings on record: 1 µM ligands or 0.1 µM Ang II, 10 min, n = 5, vs. (-). As for the experimental part: as §1
In in vitro studies, ERK 1/2 activation by 1 µM ligands or 0.1 µM Ang II incubated for 10 min was measured using COS7 cells that overexpressed AT1 wild-type and mutant receptors. ERK activity was measured in cells maintained for 18 h in DMEM containing 0.1% serum. At the end of the stimulation, the culture medium was removed by aspiration, the cells were washed with ice-cold phosphate-buffered saline, and the dishes were frozen in liquid nitrogen. The cells were scraped using a scraper after melting, and the scraped cells were transferred to a tube. We homogenized the cells in lysis buffer plus protease inhibitors and determined the protein concentration using the bicinchoninic acid method. […] We fractionated total proteins using sodium dodecyl sulfate polyacrylamide gel electrophoresis; we then transferred the proteins to a Hybond nitrocellulose membrane and blocked the blotted membranes with 10% bovine serum albumin in tris-buffered saline buffer (50 mM Tris–HCl pH 7.6, 150 mM NaCl) for 1 h at room temperature. […] An enhanced chemiluminescent substrate system (Amersham, Buckinghamshire, UK) was used. The signal was independently quantified by digital image analysis (ImageJ, National Institutes of Health, Bethesda, MD, USA).

Where a chain is given by its changes, count along the chain named.

As to `CCCc1nc(C(C)(C)O)c(C(=O)O)n1Cc1ccc(-c2cc(Cc3ccc(O)cc3)ccc2-c2nnn[nH]2)cc1` [R781253], the “Effect on IP production” value at AT1 Q257A receptor was “none of the compounds (R239470, R781253, and R794847) affected IP production”. For the same molecule, the ERK1/2 activation entry at AT1 L112A receptor was “activated ERK1/2”.

As for `CCCc1nc(C(C)(C)O)c(C(N)=O)n1Cc1ccc(-c2cc(Cc3ccc(O)cc3)ccc2-c2nnn[nH]2)cc1` [R794847], the “Effect on IP production” value on AT1 Q257A receptor was “none of the compounds (R239470, R781253, and R794847) affected IP production”. Also, at AT1 L112A receptor, the ERK1/2 activation entry is on record as “activated ERK1/2”.

On to `CCCc1nc(C(C)(C)O)c(C(=O)O)n1Cc1ccc(-c2ccccc2-c2nnn[nH]2)cc1` [Olmesartan, olmesartan], for which the “Effect on IP production” value on AT1 Q257A receptor is recorded as “significant reduction in basal IP production levels”. For the same molecule, the ERK1/2 activation entry at AT1 L112A receptor is recorded as “did not change ERK1/2 activation”.

As for `CCCc1nc(C(C)(C)O)c(C(N)=O)n1Cc1ccc(-c2ccccc2-c2nnn[nH]2)cc1` [R239470], the “Effect on IP production” value at AT1 Q257A receptor was “none of the compounds (R239470, R781253, and R794847) affected IP production”. Also, the ERK1/2 activation entry on AT1 L112A receptor is “but not R239470, activated ERK1/2”.

The record behind these values is PMC10216478, “Development of a Non-Peptide Angiotensin II Type 1 Receptor Ligand by Structural Modification of Olmesartan as a Biased Agonist” (Biomedicines, 2023).
